# Test results as given in US20250179103A1, “6-OXODECAHYDROPYRROLO[1,2-A][1,5]DIAZOCINE AND 6-OXODECAHYDRO-4H-PYRROLO[2,1-D][1,5]THIAZOCINE DERIVATIVES AS STAT3 AND STAT6 MODULATORS FOR THE TREATMENT OF CANCER AND INFLAMMATORY CONDITIONS” (Recludix Pharma, Inc., priority 2022, published 2025).
# pIC50: −log10 of the molar value.
# Columns and labels:
# [1] = target: T1, Recombinant STAT3 protein (STAT3(G127-I722)) (Homo sapiens, UniProt P40763); experiment: STAT3 Fluorescence Polarization (FP) Assay; type: binding; conditions: STAT3(G127-I722) 25 nM, probe 5-FAM-GpYLPQTV-NH2 2 nM, 45-minute incubation
# T1 construct: Recombinant STAT3 protein (STAT3(G127-I722))
# In short: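 STAT3(G127-I722), 25 nM, was mixed with 2 nM 5-FAM-GpYLPQTV-NH2 probe in HEPES pH 7.4 buffer with 1% DMSO and serially diluted compound. FP (mP) was read after 45 min at room temperature. IC50 came from nonlinear regression.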
# [2] = target: T2, Recombinant STAT6 protein (STAT6(W123-T658)) (Homo sapiens, UniProt P42226); experiment: STAT6 Fluorescence Polarization (FP) Assay; type: binding; conditions: STAT6(W123-T658) 250 nM, probe 5-FAM-ApYKPFQDLI-NH2 2 nM, 45-minute incubation
# T2 construct: Recombinant STAT6 protein (STAT6(W123-T658))
# T2 sequence (P42226 123-658): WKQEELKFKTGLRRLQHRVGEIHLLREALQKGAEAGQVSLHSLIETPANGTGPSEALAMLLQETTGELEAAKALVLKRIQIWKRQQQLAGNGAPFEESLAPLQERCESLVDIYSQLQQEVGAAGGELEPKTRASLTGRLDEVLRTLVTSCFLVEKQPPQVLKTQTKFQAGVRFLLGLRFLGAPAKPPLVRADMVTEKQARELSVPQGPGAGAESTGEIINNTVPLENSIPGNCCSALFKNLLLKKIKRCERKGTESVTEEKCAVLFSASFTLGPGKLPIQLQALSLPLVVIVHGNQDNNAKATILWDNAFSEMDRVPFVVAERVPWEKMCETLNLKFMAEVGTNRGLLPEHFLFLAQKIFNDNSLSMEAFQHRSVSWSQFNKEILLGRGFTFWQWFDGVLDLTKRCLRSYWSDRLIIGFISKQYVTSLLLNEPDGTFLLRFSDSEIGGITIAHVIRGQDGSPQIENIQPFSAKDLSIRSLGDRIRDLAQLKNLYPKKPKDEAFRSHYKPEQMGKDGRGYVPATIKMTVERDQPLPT
# In short: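 Displacement of a fluorescent phosphotyrosine peptide (5-FAM-ApYKPFQDLI-NH2, 2 nM) from STAT6(W123-T658) (250 nM), 1% DMSO, pH 7.4 HEPES buffer. After 45 min at room temperature, polarization (mP) was plotted versus log compound concentration and fitted by nonlinear regression to give IC50.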
# T1 sequence (P40763 127-722): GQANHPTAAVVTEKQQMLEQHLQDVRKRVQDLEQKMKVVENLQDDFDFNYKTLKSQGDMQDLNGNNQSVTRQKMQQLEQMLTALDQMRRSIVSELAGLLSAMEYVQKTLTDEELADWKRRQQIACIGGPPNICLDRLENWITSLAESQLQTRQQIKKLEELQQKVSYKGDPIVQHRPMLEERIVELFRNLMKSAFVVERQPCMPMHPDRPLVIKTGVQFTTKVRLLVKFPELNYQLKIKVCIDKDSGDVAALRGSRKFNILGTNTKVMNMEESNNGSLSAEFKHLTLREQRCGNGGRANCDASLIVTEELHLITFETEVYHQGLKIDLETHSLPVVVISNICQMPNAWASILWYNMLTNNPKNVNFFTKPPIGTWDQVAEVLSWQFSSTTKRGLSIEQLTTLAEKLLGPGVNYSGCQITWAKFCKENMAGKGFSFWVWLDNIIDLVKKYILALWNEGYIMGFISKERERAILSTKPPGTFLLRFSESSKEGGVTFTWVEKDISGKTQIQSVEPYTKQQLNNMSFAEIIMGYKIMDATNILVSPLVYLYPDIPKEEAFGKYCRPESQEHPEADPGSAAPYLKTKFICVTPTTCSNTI
pIC50 [1],pIC50 [2],SMILES
< 5.00,< 4.52,"CCC(=O)NCCCN(C)C(=O)[C@@H]1CC[C@@H]2CCN(C(C)=O)C[C@H](NC(=O)/C=C/c3ccc(C(F)(F)P(=O)(O)O)cc3)C(=O)N21 [Compound 26, ((4-((E)-3-(((5S,8S,10aR)-3-acetyl-8-(methyl(3-propionamidopropyl)carbamoyl)-6-oxodecahydropyrrolo[1,2-a][1,5]diazocin-5-yl)amino)-3-oxoprop-1-en-1-yl)phenyl)difluoromethyl)phosphonic acid]"
6.00 to 7.00,≥ 6.52,"CC(=O)N1CC[C@H]2CC[C@@H](C(=O)N3C[C@@H](C#N)[C@H](c4cccnc4)C3)N2C(=O)[C@@H](NC(=O)c2cc3cc(C(F)(F)P(=O)(O)O)ccc3s2)C1 (relative stereo) [Compound 150, ((2-(((5S,8S,10aR)-3-acetyl-8-((rel-trans)-3-cyano-4-(pyridin-3-yl)pyrrolidine-1-carbonyl)-6-oxodecahydropyrrolo[1,2-a][1,5]diazocin-5-yl)carbamoyl)benzo[b]thiophen-5-yl)difluoromethyl)phosphonic acid]"
5.00 to 6.00,5.52 to 6.52,"CC(=O)N1CC[C@H]2CC[C@@H](C(=O)Nc3ccc4nccnc4c3)N2C(=O)[C@@H](NC(=O)c2cc3cc(C(F)(F)P(=O)(O)O)ccc3s2)C1 [Compound 69, ((2-(((5S,8S,10aR)-3-aceytl-6-oxo-8-(quinoxalin-6-ylcarbamoyl)decahydropyrrolo[1,2-a][1,5]diazocin-5-yl)carbamoyl)benzo[b]thiophen-5-yl)difluoromethyl)phosphonic acid]"
6.00 to 7.00,5.52 to 6.52,"CC(=O)N1CC[C@H]2CC[C@@H](C(=O)N3CC(Oc4ccccc4)C3)N2C(=O)[C@@H](NC(=O)c2cc3cc(C(F)(F)P(=O)(O)O)ccc3[nH]2)C1 [Compound 99, ((2-(((5S,8S,10aR)-3-acetyl-6-oxo-8-(3-phenoxyazetidine-1-carbonyl)decahydropyrrolo[1,2-a][1,5]diazocin-5-yl)carbamoyl)-1H-indol-5-yl)difluoromethyl)phosphonic acid]"
< 5.00,5.52 to 6.52,"C[C@@H](C(=O)N1CC[C@H]2CC[C@@H](C(=O)N(C)c3ccccc3)N2C(=O)[C@@H](NC(=O)c2cc3cc(C(F)(F)P(=O)(O)O)ccc3[nH]2)C1)c1ccccc1 [Compound 217, (difluoro(2-(((5S,8S,10aR)-8-(methyl(phenyl)carbamoyl)-6-oxo-3-((R)-2-phenylpropanoyl)decahydropyrrolo[1,2 a][1,5]diazocin-5-yl)carbamoyl)-1H-indol-5-yl)methyl)phosphonic acid]"
5.00 to 6.00,5.52 to 6.52,"CC(=O)N1CC[C@H]2CC[C@@H](C(=O)N3CC[C@H](C#N)[C@H]3c3ccccc3)N2C(=O)[C@@H](NC(=O)c2cc3cc(C(F)(F)P(=O)(O)O)ccc3s2)C1 (relative stereo) [Compound 207, ((2-(((5S,8S,10aR)-3-acetyl-8-((rel-trans)-3-cyano-2-phenylpyrrolidine-1-carbonyl)-6-oxodecahydropyrrolo[1,2-a][1,5]diazocin-5-yl)carbamoyl)benzo[b]thiophen-5-yl)difluoromethyl)phosphonic acid]"
6.00 to 7.00,5.52 to 6.52,"CC(=O)N1CC[C@H]2CC[C@@H](C(=O)Nc3ccc4[nH]ncc4c3)N2C(=O)[C@@H](NC(=O)c2cc3cc(C(F)(F)P(=O)(O)O)ccc3s2)C1 [Compound 175, ((2-(((5S,8S,10aR)-8-((1H-indazol-5-yl)carbamoyl)-3-acetyl-6-oxodecahydropyrrolo[1,2-a][1,5]diazocin-5-yl)carbamoyl)benzo[b]thiophen-5-yl)difluoromethyl)phosphonic acid]"
5.00 to 6.00,5.52 to 6.52,"COc1cc(C2CN(C(=O)[C@@H]3CC[C@@H]4CCN(C(C)=O)C[C@H](NC(=O)c5cc6cc(C(F)(F)P(=O)(O)O)ccc6s5)C(=O)N43)C[C@@H]2C#N)ccn1 (relative stereo) [Compound 148, ((2-(((5S,8S,10aR)-3-acetyl-8-((rel-trans)-3-cyano-4-(2-methoxypyridin-4-yl)pyrrolidine-1-carbonyl)-6-oxodecahydropyrrolo[1,2-a][1,5]diazocin-5-yl)carbamoyl)benzo[b]thiophen-5-yl)difluoromethyl)phosphonic acid]"
5.00 to 6.00,5.52 to 6.52,"CCN1CC[C@H]2CC[C@@H](C(=O)N3C[C@@H](C#N)[C@H](c4cc[nH]c(=O)c4)C3)N2C(=O)[C@@H](NC(=O)c2ccc3ccc(C(F)(F)P(=O)(O)O)cc3c2)C1 (relative stereo) [Compound 240, ((7-(((5S,8S,10aR)-8-((rel-trans)-3-cyano-4-(2-oxo-1,2-dihydropyridin-4-yl)pyrrolidine-1-carbonyl)-3-ethyl-6-oxodecahydropyrrolo[1,2-a][1,5]diazocin-5-yl)carbamoyl)naphthalen-2-yl)difluoromethyl)phosphonic acid]"
< 5.00,< 4.52,"CC(=O)N1CC[C@H]2CC[C@@H](C(=O)N(C)c3ccccc3)N2C(=O)[C@@H](NC(=O)c2cc3cc(C(CO)P(=O)(O)O)ccc3s2)C1 (stereo partly drawn) [Compound 19, (1-(2-(((5S,8S,10aR)-3-acetyl-8-(methyl(phenyl)carbamoyl)-6-oxodecahydropyrrolo[1,2-a][1,5]diazocin-5-yl)carbamoyl)benzo[b]thiophen-5-yl)-2-hydroxyethyl)phosphonic acid]"
≥ 7.00,5.52 to 6.52,"CC(=O)N1CC[C@H]2CC[C@@H](C(=O)N3CC(c4cccc(C#N)c4)C3)N2C(=O)[C@@H](NC(=O)c2cc3cc(C(F)(F)P(=O)(O)O)ccc3s2)C1 [Compound 208, ((2-(((5S,8S,10aR)-3-acetyl-8-(3-(3-cyanophenyl)azetidine-1-carbonyl)-6-oxodecahydropyrrolo[1,2-a][1,5]diazocin-5-yl)carbamoyl)benzo[b]thiophen-5-yl)difluoromethyl)phosphonic acid]"
5.00 to 6.00,≥ 6.52,"CC(=O)N1CC[C@H]2CC[C@@H](C(=O)N3CCC[C@H]3Cc3ccccc3)N2C(=O)[C@@H](NC(=O)c2cc3cc(C(F)(F)P(=O)(O)O)ccc3s2)C1 [Compound 186, ((2-(((5S,8S,10aR)-3-acetyl-8-((S)-2-benzylpyrrolidine-1-carbonyl)-6-oxodecahydropyrrolo[1,2-a][1,5]diazocin-5-yl)carbamoyl)benzo[b]thiophen-5-yl)difluoromethyl)phosphonic acid]"
5.00 to 6.00,5.52 to 6.52,"CC(=O)N1CC[C@H]2CC[C@@H](C(=O)N(C)c3ccc(OCCN(C)C)cc3)N2C(=O)[C@@H](NC(=O)c2cc3cc(C(F)(F)P(=O)(O)O)ccc3[nH]2)C1 [Compound 102, ((2-(((5S,8S,10aR)-3-acetyl-8-((4-(2-(dimethylamino)ethoxy)phenyl)(methyl)carbamoyl)-6-oxodecahydropyrrolo[1,2-a][1,5]diazocin-5-yl)carbamoyl)-1H-indol-5-yl)difluoromethyl)phosphonic acid]"
6.00 to 7.00,5.52 to 6.52,"CC(=O)N1CC[C@H]2CC[C@@H](C(=O)N3CCC(C(N)=O)c4cc(-c5ccccc5)ccc43)N2C(=O)[C@@H](NC(=O)c2cc3cc(C(F)(F)P(=O)(O)O)ccc3s2)C1 (stereo partly drawn) [Compound 116, ((2-(((5S,8S,10aR)-3-acetyl-8-(4-carbamoyl-6-phenyl-1,2,3,4-tetrahydroquinoline-1-carbonyl)-6-oxodecahydropyrrolo[1,2-a][1,5]diazocin-5-yl)carbamoyl)benzo[b]thiophen-5-yl)difluoromethyl)phosphonic acid]"
6.00 to 7.00,5.52 to 6.52,"CC(=O)N1CC[C@H]2CC[C@@H](C(=O)Nc3ccn(-c4ccccc4)c(=O)c3C#N)N2C(=O)[C@@H](NC(=O)c2cc3cc(C(F)(F)P(=O)(O)O)ccc3[nH]2)C1 [Compound 105, ((2-(((5S,8S,10aR)-3-acetyl-8-((3-cyano-2-oxo-1-phenyl-1,2-dihydropyridin-4-yl)carbamoyl)-6-oxodecahydropyrrolo[1,2-a][1,5]diazocin-5-yl)carbamoyl)-1H-indol-5-yl)difluoromethyl)phosphonic acid]"
6.00 to 7.00,≥ 6.52,"N#CC1CN(C(=O)C2CCC3CCN(C(=O)OCc4ccccc4)CC(NC(=O)c4cc5cc(C(F)(F)P(=O)(O)O)ccc5s4)C(=O)N32)CC1c1ccccc1 (mixture of isomers) [Compound 9, ((2-(((5S,8S,10aR)-3-((benzyloxy)carbonyl)-8-((rel-trans)-3-cyano-4-phenylpyrrolidine-1-carbonyl)-6-oxodecahydropyrrolo[1,2-a][1,5]diazocin-5-yl)carbamoyl)benzo[b]thiophen-5-yl)difluoromethyl)phosphonic acid]"
